The target of one data set is human cyclin B-CDK1 (Homo sapiens, UniProt P06493). Briefly: FlashPlate kinase assay, cyclin B-CDK1, Rb substrate. Format: biochemical. To be noted: recombinant cyclin B-CDK1, Rb phosphorylation, 1 μM ATP. In a few lines:
(§1)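 Recombinant human cyclin–CDK complexes, co-expressed in insect cells, phosphorylated His-tagged Rb (aa 386-928) coated on FlashPlates at 10 μg/ml. Reaction used 1 μM ATP plus 4 nM ^33P-ATP and 20 mM MgCl2 for 30 min at room temperature. % inhibition came from scintillation counts against no-enzyme and no-compound wells, and IC50 was the concentration halving radiolabel incorporation.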

Another data set addresses human cyclin E-CDK2 (Homo sapiens, UniProt P24941). The data set can be described thus: FlashPlate kinase assay, cyclin E-CDK2, Rb substrate. Format: biochemical. Conditions: recombinant cyclin E-CDK2, Rb phosphorylation, 1 μM ATP. In a few lines: as §1
The target in a further data set is human cyclin D1-CDK4 (Homo sapiens, UniProt P11802). The data set can be described thus: FlashPlate kinase assay, cyclin D1-CDK4, Rb substrate. It is filed as biochemical. To be noted: recombinant cyclin D1-CDK4, Rb phosphorylation, 1 μM ATP. In a few lines: as §1
Data set [1] relates to HCT116, a colorectal carcinoma cell line. Briefly: Tetrazolium dye proliferation assay (MTT assay). To be noted: Homo sapiens, HCT-116, HCT116 cells, inhibition of cell proliferation. Format: cell-based. In a few lines: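 HCT116 cells in McCoy's 5A + 10% FCS, plated overnight, then dosed in duplicate with serial dilutions (final DMSO 0.3%) and incubated to growth-curve time points. MTT at 1 mg/ml for 2.5-3 h, formazan in ethanol, A570/650. IC50 by linear regression of log concentration vs % inhibition relative to blank and DMSO controls.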
In general terms: Tetrazolium assays rely on reduction of a dye to a coloured formazan, in cell work by metabolically active cells.

These results are taken from US6818663B2, “Diaminothiazoles” (Hoffmann-La Roches, priority 2002, dated 2004).

Chain of human cyclin D1-CDK4 (P11802 whole entry): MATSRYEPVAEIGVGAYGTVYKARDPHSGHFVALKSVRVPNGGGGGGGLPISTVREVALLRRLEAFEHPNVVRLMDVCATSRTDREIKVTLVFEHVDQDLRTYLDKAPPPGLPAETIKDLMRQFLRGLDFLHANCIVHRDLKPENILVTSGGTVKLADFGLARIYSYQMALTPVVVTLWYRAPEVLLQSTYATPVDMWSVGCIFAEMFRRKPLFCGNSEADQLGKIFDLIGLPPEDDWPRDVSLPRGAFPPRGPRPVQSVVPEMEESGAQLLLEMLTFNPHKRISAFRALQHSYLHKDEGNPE
Chain of human cyclin D1-CDK4 (P24385 whole entry partner): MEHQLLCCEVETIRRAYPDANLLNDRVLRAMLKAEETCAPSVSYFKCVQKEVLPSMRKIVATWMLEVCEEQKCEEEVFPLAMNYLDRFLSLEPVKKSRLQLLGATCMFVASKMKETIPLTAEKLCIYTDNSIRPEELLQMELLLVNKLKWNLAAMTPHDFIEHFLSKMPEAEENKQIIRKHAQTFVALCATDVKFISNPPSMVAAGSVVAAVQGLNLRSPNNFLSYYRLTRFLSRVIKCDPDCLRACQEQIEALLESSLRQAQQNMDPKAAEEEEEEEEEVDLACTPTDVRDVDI
Chain of human cyclin B-CDK1 (P06493 whole entry, the tested form may be a part): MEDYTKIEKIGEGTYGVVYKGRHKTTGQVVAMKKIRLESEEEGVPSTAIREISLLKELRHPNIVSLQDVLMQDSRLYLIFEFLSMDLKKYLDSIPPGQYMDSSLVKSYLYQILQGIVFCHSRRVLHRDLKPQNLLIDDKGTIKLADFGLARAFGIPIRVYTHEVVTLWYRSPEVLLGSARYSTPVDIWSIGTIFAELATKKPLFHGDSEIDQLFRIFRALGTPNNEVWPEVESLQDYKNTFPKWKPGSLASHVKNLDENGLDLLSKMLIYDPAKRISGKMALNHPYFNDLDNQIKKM
Chain of human cyclin B-CDK1 (P14635 whole entry partner, the tested form may be a part): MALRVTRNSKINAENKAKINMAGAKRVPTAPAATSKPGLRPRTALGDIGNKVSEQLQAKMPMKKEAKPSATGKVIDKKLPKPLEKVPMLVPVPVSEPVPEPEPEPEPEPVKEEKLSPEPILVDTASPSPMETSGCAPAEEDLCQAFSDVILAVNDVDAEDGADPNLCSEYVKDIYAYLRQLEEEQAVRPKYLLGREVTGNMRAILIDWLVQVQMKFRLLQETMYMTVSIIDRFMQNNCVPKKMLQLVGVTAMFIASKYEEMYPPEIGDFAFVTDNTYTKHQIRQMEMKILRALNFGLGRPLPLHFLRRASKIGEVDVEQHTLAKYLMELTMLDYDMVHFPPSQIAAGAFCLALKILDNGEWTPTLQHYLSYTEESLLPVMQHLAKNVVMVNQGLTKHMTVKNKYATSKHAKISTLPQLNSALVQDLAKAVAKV

In the case of `CCCc1cc(C(=O)c2sc(Nc3ccc(OC[C@@H](C)N(C)C)cc3)nc2N)ccc1O` [Example 107, (R)-[4-Amino-2-[4-(2-dimethylamino-propoxy)-phenylamino]-thiazol-5-yl]-(4-hydroxy-3-propyl-phenyl)-methanone; Compound With Acetic Acid], the IC50 at human cyclin B-CDK1 worked out at 240 nM; on human cyclin E-CDK2, 213 nM; at human cyclin D1-CDK4, 26 nM; in data set [1] it was 491 nM.
The matching figures for `CCCc1cc(C(=O)c2sc(Nc3ccc(OCC(C)(C)N(C)C)cc3)nc2N)ccc1O` [Example 108, [4-Amino-2-[4-(2-dimethylamino-2-methyl-propoxy)-phenylamino]-thiazol-5-yl]-(4-hydroxy-3-propyl-phenyl)-methanone; Compound With Acetic Acid]: 291 nM, 295 nM, 26 nM and 518 nM.
For the compound `CCCc1cc(C(=O)c2sc(Nc3ccc(OCCN4CCCC4)cc3)nc2N)ccc1O` [Example 109, [4-Amino-2-[4-(2-pyrrolidin-1-yl-ethoxy)-phenylamino]-thiazol-5-yl]-(4-hydroxy-3-propyl-phenyl)-methanone; Compound With Acetic Acid], the IC50 came to 151 nM at human cyclin B-CDK1, 207 nM on human cyclin E-CDK2, 14 nM on human cyclin D1-CDK4 and 229 nM in data set [1].
Turning to `CCCc1cc(C(=O)c2sc(Nc3ccc(OC[C@@H](C)N4CCCC4)cc3)nc2N)ccc1O` [Example 110, (R)-[4-Amino-2-[4-(2-pyrrolidin-1-yl-propoxy)-phenylamino]-thiazol-5-yl]-(4-hydroxy-3-propyl-phenyl)-methanone; Compound With Acetic Acid], the IC50 at human cyclin B-CDK1 is 177 nM; on human cyclin E-CDK2, 182 nM; at human cyclin D1-CDK4 it was 23 nM; in data set [1], 291 nM.
Taken in the same sequence, the figures for `CCc1cccc(C(=O)c2sc(Nc3ccc(OC[C@@H]4CCCN4C)cc3)nc2N)c1` [Example 112, (S)-[4-Amino-2-[4-(1-methyl-pyrrolidin-2-ylmethoxy)-phenylamino]-thiazol-5-yl]-(3-ethyl-phenyl)-methanone] were 1890 nM, 2320 nM, 42 nM and 419 nM.
The matching figures for `CN1CCC[C@H]1COc1ccc(Nc2nc(N)c(C(=O)c3cccc(C4CC4)c3)s2)cc1` [Example 113, (S)-[4-Amino-2-[4-(1-methyl-pyrrolidin-2-ylmethoxy)-phenylamino]-thiazol-5-yl]-(3-cyclopropyl-phenyl)-methanone]: 3900 nM, 3340 nM, 62 nM and 1070 nM.
The matching figures for `Cc1ccc(C(=O)c2sc(Nc3ccc(OC[C@@H]4CCCN4C)cc3)nc2N)cc1F` [Example 114, (S)-[4-Amino-2-[4-(1-methyl-pyrrolidin-2-ylmethoxy)-phenylamino]-thiazol-5-yl]-(3-fluoro-4-methyl-phenyl)-methanone]: 850 nM, 5030 nM, 63 nM and 2070 nM.
Consider `CCCc1cc(C(=O)c2sc(Nc3ccc(OC[C@@H]4CCCN4C)cc3)nc2N)ccc1O` [Example 115, (S)-[4-Amino-2-[4-(1-methyl-pyrrolidin-2-ylmethoxy)-phenylamino]-thiazol-5-yl]-(4-hydroxy-3-propyl-phenyl)-methanone Acetate], for which the IC50 at human cyclin B-CDK1 turned out to be 357 nM; on human cyclin E-CDK2 it was 267 nM; on human cyclin D1-CDK4, 27 nM; in data set [1], 169 nM.
For `Nc1nc(Nc2ccc(OCCN3CCCC3)cc2)sc1C(=O)c1cccc(F)c1` [Example 118, [4-Amino-2-[4-(2-pyrrolidin-1-yl-ethoxy)-phenylamino]-thiazol-5-yl]-(3-fluoro-phenyl)-methanone; Compound With Acetic Acid], the IC50 was found to be 248 nM on human cyclin B-CDK1, 889 nM at human cyclin E-CDK2, 62 nM at human cyclin D1-CDK4 and 517 nM in data set [1].
Taken in the same sequence, the figures for `Nc1nc(Nc2ccc(OCCN3CCCC3)cc2)sc1C(=O)c1ccc(O)c(F)c1` [Example 120, [4-Amino-2-[4-(2-pyrrolidin-1-ylethoxy)-phenylamino]-thiazol-5-yl]-(3-fluoro-4-hydroxy-phenyl)-methanone; Compound With Acetic Acid] were 422 nM, 781 nM, 38 nM and 1630 nM.
Taken in the same sequence, the figures for `COc1cccc(C(=O)c2sc(Nc3ccc(OC[C@@H](C)N4CCCC4)cc3)nc2N)c1` [Example 121, [R]-[4-Amino-2-[4-(2-pyrrolidin-1-yl-propoxy)-phenylamino]-thiazol-5-yl]-(3-methoxy-phenyl)-methanone; Compound With Acetic Acid] were 1790 nM, 4910 nM, 60 nM and 1060 nM.
Taken in the same sequence, the figures for `CCN(CC)CCOc1ccc(Nc2nc(N)c(C(=O)c3ccc(O)c(F)c3)s2)cc1` [Example 123, [4-Amino-2-[4-(2-diethylamino-ethoxy)-phenylamino]-thiazol-5-yl]-(3-fluoro-4-hydroxy-phenyl)-methanone] were 422 nM, 1660 nM, 36 nM and 1870 nM.
In the case of `CCN(CC)CCOc1ccc(Nc2nc(N)c(C(=O)c3ccc(OC)c(F)c3)s2)cc1` [Example 125, [4-Amino-2-[4-(2-diethylamino-ethoxy)-phenylamino]-thiazol-5-yl]-(3-fluoro-4-methoxy-phenyl)-methanone], the IC50 came out at 2180 nM at human cyclin B-CDK1, 6790 nM on human cyclin E-CDK2, 32 nM at human cyclin D1-CDK4 and 2220 nM in data set [1].
Taken in the same sequence, the figures for `CCN(CC)CCOc1ccc(Nc2nc(N)c(C(=O)c3cccc(SC)c3)s2)cc1` [Example 126, [4-Amino-2-[4-(2-diethylamino-ethoxy)-phenylamino]-thiazol-5-yl]-(3-methylsulfanyl-phenyl)-methanone] were 1650 nM, 6070 nM, 47 nM and 3970 nM.
The matching figures for `Nc1nc(Nc2ccc(OCCN3CCCC3)cc2)sc1C(=O)c1cccc(C(F)(F)F)c1` [Example 128, [4-Amino-2-[4-(2-pyrrolidin-1-yl-ethoxy)-phenylamino]-thiazol-5-yl]-(3-trifluoromethyl-phenyl)-methanone]: 2050 nM, 1310 nM, 65 nM and 4590 nM.
Take `CCNCCOc1ccc(Nc2nc(N)c(C(=O)c3cccc(OC)c3)s2)cc1` [Example 130, [4-Amino-2-[4-(2-ethylamino-ethoxy)-phenylamino]-thiazol-5-yl]-(3-methoxy-phenyl)-methanone]: the IC50 is 784 nM on human cyclin B-CDK1, 3330 nM on human cyclin E-CDK2, 48 nM at human cyclin D1-CDK4 and 1390 nM in data set [1].
The matching figures for `CCNCCOc1ccc(Nc2nc(N)c(C(=O)c3cccc(F)c3)s2)cc1` [Example 131, [4-Amino-2-[4-(2-ethylamino-ethoxy)-phenylamino]-thiazol-5-yl]-(3-fluoro-phenyl)-methanone]: 298 nM, 892 nM, 520 nM and 693 nM.
In the case of `CCNCCOc1ccc(Nc2nc(N)c(C(=O)c3ccc4c(c3)OCO4)s2)cc1` [Example 133, [4-Amino-2-[4-(2-ethylamino-ethoxy)-phenylamino]-thiazol-5-yl]-benzo[1,3]dioxol-5-yl-methanone], the 50% inhibitory concentration (IC50) at human cyclin B-CDK1 worked out at 338 nM; on human cyclin E-CDK2, 3170 nM; at human cyclin D1-CDK4, 29 nM; in data set [1] it was 3000 nM.
The matching figures for `CC(C)NCCOc1ccc(Nc2nc(N)c(C(=O)c3ccc4c(c3)OCO4)s2)cc1` [Example 137, [4-Amino-2-[4-(2-isopropylamino-ethoxy)-phenylamino]-thiazol-5-yl]-benzo[1,3]dioxol-5-yl-methanone]: 457 nM, 2750 nM, 19 nM and 1730 nM.
For the compound `COc1cccc(C(=O)c2sc(Nc3ccc(OCCN(C)C)cc3)nc2N)c1` [Example 144, [4-Amino-2-[4-(2-dimethylaminoethoxy)-phenylamino]-thiazol-5-yl]-(3-methoxy-phenyl)-methanone], the melting point was 130 °C (dec.). Also, the IC50 on human cyclin B-CDK1 was determined as 2490 nM. The IC50 at human cyclin E-CDK2 was 4540 nM. Moreover, the IC50 at human cyclin D1-CDK4 turned out to be 87 nM.
`CCN(CC)CCOc1ccc(Nc2nc(N)c(C(=O)c3cccc(OC)c3)s2)cc1` [Example 145, [4-Amino-2-[4-(2-diethylaminoethoxy)-phenylamino]-thiazol-5-yl]-(3-methoxy-phenyl)-methanone] yielded a melting point of 118 to 123 °C. Besides, the IC50 at human cyclin B-CDK1 worked out at 219 nM. Moreover, the IC50 on human cyclin E-CDK2 came out at 900 nM. For the same compound, the half-inhibitory concentration (IC50) on human cyclin D1-CDK4 was 41 nM.

By IC50 is commonly meant the midpoint of a concentration-inhibition curve. As a reminder, the melting point is the temperature, or range, at which the solid turns liquid.
